Where two headings read alike, the source gives them in different places.
What was measured:
mice [1] = test: accelerating rotarod performance assay; details: preliminary data, compared to morphine
MOR [2] = molecular target: T1, MOR (Homo sapiens, UniProt P35372); test: cell-based; parameters: host or cells: CHO-K1 OPRM1 β-arrestin-2 cells; details: for Emax: read-out: % Efficacy (maximum efficacy based on DAMGO maximum stimulation)
Target sequence in this assay (P35372 whole entry): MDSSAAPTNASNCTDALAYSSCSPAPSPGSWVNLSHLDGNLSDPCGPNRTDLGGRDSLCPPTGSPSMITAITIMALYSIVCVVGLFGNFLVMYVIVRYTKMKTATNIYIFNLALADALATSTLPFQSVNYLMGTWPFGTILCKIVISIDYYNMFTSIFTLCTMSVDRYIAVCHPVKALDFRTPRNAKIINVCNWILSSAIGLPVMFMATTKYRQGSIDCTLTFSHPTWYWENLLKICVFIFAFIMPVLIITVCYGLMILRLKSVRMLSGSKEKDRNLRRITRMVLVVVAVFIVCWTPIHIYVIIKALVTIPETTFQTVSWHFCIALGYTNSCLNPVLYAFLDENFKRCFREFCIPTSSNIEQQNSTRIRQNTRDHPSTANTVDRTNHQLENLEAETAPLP
Target sequence in this assay (P32121 whole entry partner): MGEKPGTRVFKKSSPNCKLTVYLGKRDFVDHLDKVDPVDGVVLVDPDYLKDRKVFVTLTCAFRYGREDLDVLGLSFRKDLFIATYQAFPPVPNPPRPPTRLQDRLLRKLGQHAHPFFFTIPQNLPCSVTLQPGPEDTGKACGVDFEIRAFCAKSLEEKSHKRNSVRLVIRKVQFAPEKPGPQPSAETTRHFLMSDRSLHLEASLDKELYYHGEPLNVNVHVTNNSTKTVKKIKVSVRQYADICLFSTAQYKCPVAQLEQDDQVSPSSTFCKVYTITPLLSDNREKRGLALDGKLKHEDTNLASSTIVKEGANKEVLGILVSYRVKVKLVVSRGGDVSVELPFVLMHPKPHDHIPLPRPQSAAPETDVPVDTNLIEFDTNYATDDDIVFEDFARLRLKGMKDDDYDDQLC

mice [3] = test: hot water tail-flick tolerance evaluation; assay type: in vivo; details: daily i.p. for 9 days, 10 mg/kg morphine or 5 mg/kg compound 3.46, latency 30 min after dose
MOR [4] = molecular target: T1, MOR; test: cell-based; assay type: cell-based; parameters: expressed in transfected cells; host or cells: CHO cells stably expressing MOR; details: for MOR potency relative to kurkinorin: cAMP assay, Table 1
Target sequence in this assay (P35372 whole entry): as the sequence (P35372 whole entry) above

[5] = CHO cells expressing MOR, read-out: EC50 (inhibition of cAMP accumulation)

With `COC(=O)[C@@H]1C=C(OC(=O)c2ccc(CO)cc2)C(=O)[C@H]2[C@@]1(C)CC[C@H]1C(=O)O[C@H](c3ccoc3)C[C@]21C` [Entry 3, Methyl (2S,4aR,6aR,7R,10aR,10bR)-2-(furan-3-yl)-9-((4-(hydroxymethyl)benzoyl)oxy)-6a,10b-dimethyl-4,10-dioxo-1,4,4a,5,6,6a,7,10,10a,10b-decahydro-2H-benzo[f]isochromene-7-carboxylate] as the compound, how does the melting point read?
Its melting point is 115 to 118 °C.

And the “effects on motor coordination” value (mice [1])?
Its value is “significantly less effects on motor coordination than morphine”.

What about the “Bias Factor” value (MOR [2]) of the same compound?
Its value is 0.14.

And the EC50 (MOR [2])?
The EC50 was 14 nM.

What about the Emax (MOR [2]) of the same compound?
The Emax was 81%.

And the “antinociceptive effects (% maximal possible effect) on daily administration” value (mice [3])?
The value was “maintained antinociceptive efficacy from days 1-9”.

And the EC50 (MOR [4]; [5])?
Its EC50 is 0.03 ± 0.01 nM.

And the “MOR potency relative to kurkinorin” value (MOR [4])?
Its value is “about two orders of magnitude more potent than kurkinorin”.

Which melting point does the source give for `COC(=O)[C@@H]1C=C(OC(=O)c2cccc(CO)c2)C(=O)[C@H]2[C@@]1(C)CC[C@H]1C(=O)O[C@H](c3ccoc3)C[C@]21C` [Entry 4, Methyl (2S,4aR,6aR,7R,10aR,10bR)-2-(furan-3-yl)-9-((3-(hydroxymethyl)benzoyl)oxy)-6a,10b-dimethyl-4,10-dioxo-1,4,4a,5,6,6a,7,10,10a,10b-decahydro-2H-benzo[f]isochromene-7-carboxylate] here?
Its melting point is 104 to 106 °C.

What about the “Bias Factor” value (MOR [2]) of the same compound?
Its value is 0.87.

What about the EC50 (MOR [2]) of the same compound?
The EC50 was 150 nM.

And the Emax (MOR [2])?
The Emax was 75%.

What about the EC50 (MOR [4]; [5]) of the same compound?
The EC50 was 2.42 ± 0.07 nM.

Which results are given for `COC(=O)[C@@H]1C=C(OC(=O)c2ccc3occc3c2)C(=O)[C@H]2[C@@]1(C)CC[C@H]1C(=O)O[C@H](c3ccoc3)C[C@]21C` [Entry 2, Methyl (2S,4aR,6aR,7R,10aR,10bR)-9-((benzofuran-5-carbonyl)oxy)-2-(furan-3-yl)-6a,10b-dimethyl-4,10-dioxo-1,4,4a,5,6,6a,7,10,10a,10b-decahydro-2H-benzo[f]isochromene-7-carboxylate]?
Bias Factor (MOR [2]): 1.21; EC50 (MOR [2]): 490 nM; Emax (MOR [2]): 84%; EC50 (MOR [4]): 9 ± 2 nM

For `C[C@@H](NC(=O)[C@@H](N)Cc1ccc(O)cc1)C(=O)NCC(=O)N(C)[C@@H](Cc1ccccc1)C(=O)NCCO` [DAMGO, reference compound], which “Bias Factor” value (MOR [2]) is on record?
Its value is 1.0.

What does the source list for `COC(=O)[C@@H]1C=C(OC(=O)c2cccc(C(N)=O)c2)C(=O)[C@H]2[C@@]1(C)CC[C@H]1C(=O)O[C@H](c3ccoc3)C[C@]21C`?
EC50 (MOR [2]): > 25000 nM; Emax (MOR [2]): 0%; EC50 (MOR [4]): > 10000 nM; Emax (MOR [4]; CHO): 0%

With `COC(=O)[C@@H]1C=C(OC(=O)c2ccc3c(c2)CNC3=O)C(=O)[C@H]2[C@@]1(C)CC[C@H]1C(=O)O[C@H](c3ccoc3)C[C@]21C` [Entry 9, (2S,4aR,6aR,7R,10aR,10bR)-2-(furan-3-yl)-7-(methoxycarbonyl)-6a,10b-dimethyl-4,10-dioxo-1,4,4a,5,6,6a,7,10,10a,10b-decahydro-2H-benzo[f]isochromen-9-yl 1-oxoisoindoline-5-carboxylate] as the compound, how does the “Bias Factor” value (MOR [2]) read?
Its value is 0.81.

And the EC50 (MOR [2])?
The EC50 was 260 nM.

What about the Emax (MOR [2]) of the same compound?
Its Emax is 88%.

What about the EC50 (MOR [4]; [5]) of the same compound?
The EC50 was 3.2 ± 0.7 nM.

Which “Bias Factor” value (MOR [2]) does the source give for `COC(=O)[C@@H]1C=C(OC(=O)c2ccc(C(N)=O)cc2)C(=O)[C@H]2[C@@]1(C)CC[C@H]1C(=O)O[C@H](c3ccoc3)C[C@]21C` [Entry 6] here?
Its value is 1.57.

And the EC50 (MOR [2])?
Its EC50 is 10 nM.

What about the Emax (MOR [2]) of the same compound?
The Emax was 119%.

And the EC50 (MOR [4])?
Its EC50 is 0.19 ± 0.03 nM.

And the “MOR potency relative to kurkinorin” value (MOR [4])?
Its value is “almost an order of magnitude more potent than kurkinorin”.

With `COCc1ccc(C(=O)OC2=C[C@@H](C(=O)OC)[C@]3(C)CC[C@H]4C(=O)O[C@H](c5ccoc5)C[C@]4(C)[C@H]3C2=O)cc1` [Entry 5, Methyl (2S,4aR,6aR,7R,10aR,10bR)-2-(furan-3-yl)-9-((4-(methoxymethyl)benzoyl)oxy)-6a,10b-dimethyl-4,10-dioxo-1,4,4a,5,6,6a,7,10,10a,10b-decahydro-2H-benzo[f]isochromene-7-carboxylate] as the compound, how does the “Bias Factor” value (MOR [2]) read?
The value was 1.98.

And the EC50 (MOR [2])?
Its EC50 is 360 nM.

What about the Emax (MOR [2]) of the same compound?
Its Emax is 74%.

What about the EC50 (MOR [4]; [5]) of the same compound?
Its EC50 is 13 ± 3 nM.

Which “Bias Factor” value (MOR [2]) does the source give for `COC(=O)[C@@H]1C=C(OC(=O)c2ccc3ccoc3c2)C(=O)[C@H]2[C@@]1(C)CC[C@H]1C(=O)O[C@H](c3ccoc3)C[C@]21C` [Entry 1, Methyl (2S,4aR,6aR,7R,10aR,10bR)-9-((benzofuran-6-carbonyl)oxy)-2-(furan-3-yl)-6a,10b-dimethyl-4,10-dioxo-1,4,4a,5,6,6a,7,10,10a,10b-decahydro-2H-benzo[f]isochromene-7-carboxylate] here?
Its value is 2.62.

What about the EC50 (MOR [2]) of the same compound?
Its EC50 is 40 nM.

And the Emax (MOR [2])?
Its Emax is 90%.

What about the EC50 (MOR [4]; [5]) of the same compound?
Its EC50 is 1.5 ± 0.6 nM.

Which “Bias Factor” value (MOR [2]) does the source give for `COC(=O)[C@@H]1C=C(OC(=O)c2ccc3c(c2)C(=O)NC3)C(=O)[C@H]2[C@@]1(C)CC[C@H]1C(=O)O[C@H](c3ccoc3)C[C@]21C` [Entry 8, (2S,4aR,6aR,7R,10aR,10bR)-2-(furan-3-yl)-7-(methoxycarbonyl)-6a,10b-dimethyl-4,10-dioxo-1,4,4a,5,6,6a,7,10,10a,10b-decahydro-2H-benzo[f]isochromen-9-yl 3-oxoisoindoline-5-carboxylate] here?
The value was 0.65.

What about the EC50 (MOR [2]) of the same compound?
Its EC50 is 190 nM.

What about the Emax (MOR [2]) of the same compound?
The Emax was 76%.

What about the EC50 (MOR [4]; [5]) of the same compound?
Its EC50 is 2.2 ± 0.2 nM.
